Assay results reported in ChEMBL document CHEMBL4152373 (Bioorg Med Chem, 2018).

How the values were obtained:
[1] = Octanol-PBS buffer partition coefficient, log D of the compound at pH 7.4 by HPLC method
Rattus norvegicus [2] = test: Unbound clearance in Sprague-Dawley rat at 1 mg/kg, iv administered as single dose by LC-MS/MS analysis; assay type: ADME, organism-based; details: in vivo
[3] = Oral bioavailability in Sprague-Dawley rat at 3 mg/kg administered via gavage as single dose by LC-MS/MS analysis; assay type: ADME, organism-based; details: in vivo
[4] = Fraction unbound in rat plasma at 5 uM after 4 hrs by equilibrium dialysis method
[5] = Half life in Sprague-Dawley rat at 1 mg/kg, iv administered as single dose by LC-MS/MS analysis; assay type: ADME, organism-based; details: in vivo
[6] = Fraction unbound in mouse plasma at 5 uM after 4 hrs by equilibrium dialysis method
Rattus norvegicus [7] = test: Dose normalized unbound AUC in Sprague-Dawley rat at 3 mg/kg, po administered via gavage as single dose by LC-MS/MS analysis; assay type: ADME, organism-based; details: in vivo
Mus musculus [8] = test: Antidiabetic activity in C57Bl/6J mouse assessed as inhibition of blood glucose AUC (0 to 120 mins) at 50 mg/kg, po treated prior to glucose challenge by OGTT relative to control; assay type: functional
Mus musculus [9] = test: Dose normalized unbound AUC in C57Bl/6J mouse at 50 mg/kg, po administered via gavage as single dose by LC-MS/MS analysis; assay type: ADME, organism-based; details: in vivo
[10] = Octanol-PBS buffer partition coefficient, log D of the compound at pH 7.4 by shake flask method
Mus musculus [11] = test: Dose normalized unbound AUC in C57Bl/6J mouse at 3 mg/kg, po administered via gavage as single dose by LC-MS/MS analysis; assay type: ADME, organism-based; details: in vivo
Mus musculus [12] = test: Antidiabetic activity in C57Bl/6J mouse assessed as inhibition of blood glucose AUC (0 to 120 mins) at […], po treated prior to glucose challenge by OGTT relative to control; assay type: functional; details: AT84, po

Row | SMILES | logD [1] | CL free (Rattus norvegicus [2]) | bioavailability [3] | fraction unbound at 4 h, 5 µM [4] | half-life [5] | fraction unbound at 4 h, 5 µM [6] | fAUC/dose (Rattus norvegicus [7]) | inhibition in vivo at 50 mg/kg (Mus musculus [8]) | fAUC/dose (Mus musculus [9]) | logD [10] | fAUC/dose (Mus musculus [11]) | inhibition in vivo at […] (Mus musculus [12])
1 | O=C(O)C[C@@H](Cc1ccccc1)C(=O)N(c1nc(-c2cc(Cl)ccc2Cl)cs1)C1CC1 | 3 | 2800 mL/min/kg | 47% | 0.0001 | 9.83 h | 0.0001 | 0.26 µM·min | 5% | 0.32 µM·min | – | – | –
2 | CN(C(=O)[C@@H](CC(=O)O)Cc1ccccc1)c1nc(-c2ccccc2Cl)cs1 | 2.13 to 2.3 | 738 mL/min/kg | 77% | 0.0008 | 8.03 h | 0.0015 | 2.4 µM·min | -8% | 2 µM·min | 2.31 | – | –
3 | CC(C)C[C@H](CC(=O)O)C(=O)N(c1nc(-c2ccccc2-c2ccc(-n3cccn3)nc2)cs1)C1CC1 | 2.4 | 1091 mL/min/kg | 29% | 0.0057 | 4.67 h | 0.0075 | 0.55 µM·min | 26% | 3.3 µM·min | – | – | –
4 | CN(C(=O)[C@@H](CC(=O)O)CC1CCCC1)c1nc(-c2ccccc2Cl)cs1 | 2.74 to 2.9 | – | – | – | – | – | – | – | – | 2.87 | – | –
5 | COc1ccc(-c2ccccc2-c2csc(N(C(=O)[C@@H](CC(=O)O)CC(C)C)C3CC3)n2)cn1 | 2.2 | 342 mL/min/kg | 35% | 0.0066 | 7.18 h | 0.0107 | 2.1 µM·min | 19% | 4.7 µM·min | – | – | –
6 | COc1ccc(-c2ccc(Cl)cc2-c2csc(N(C(=O)[C@@H](CC(=O)O)Cc3ccco3)C3CC3)n2)cn1 | 2.5 | 2738 mL/min/kg | 38% | 0.0026 | 9.65 h | 0.0041 | 0.26 µM·min | 32% | 1.2 µM·min | – | – | –
7 | O=C(O)C[C@@H](Cc1ccccc1)C(=O)N(c1nc(-c2ccccc2Cl)cs1)C1CC1 | 2.3 | 1044 mL/min/kg | 52% | 0.0016 | 5.32 h | 0.0025 | 0.7 µM·min | 1% | 4.7 µM·min | – | – | –
8 | CN(C(=O)[C@H](CC(=O)O)Cc1ccccc1)c1nc(-c2ccccc2Cl)cs1 | 2.3 | – | – | – | – | – | – | – | – | – | – | –
9 | O=C(O)C[C@@H](CC1CCCC1)C(=O)N(c1nc(-c2ccccc2-c2ccc(-n3cccn3)nc2)cs1)C1CC1 | 3.1 | 6692 mL/min/kg | 25% | 0.0013 | 2.58 h | 0.0014 | 0.07 µM·min | 40% | 0.53 µM·min | – | – | –
10 | CC(C)[C@H](C(=O)Nc1nccs1)c1ccc(Cl)cc1 | 3.9 to 4.08 | 6666 mL/min/kg | 15% | 0.0062 | 3.67 h | 0.0052 | 0.08 µM·min | – | – | 3.94 | 0.045 µM·min | 7%
11 | CN(C(=O)[C@@H](CC(=O)O)CC1CCOCC1)c1nc(-c2ccccc2Cl)cs1 | 1.27 to 1.3 | – | – | – | – | – | – | – | – | 1.27 | – | –
